Measurements as given in patent US20070292528A1, “Kcnma1 as a Therapeutic Target in Cancer Treatment” (priority 2003, published 2007).
“Also recorded” adds a separate entry of the source.

Assays:
PC-3 = experiment: Growth (cell count) of PC-3 under iberiotoxin/17β-estradiol treatment; format: cell-based, human; conditions: two days
Method: (§1) “K” represents a control; “I” represents treatment with 0.05 μM Iberiotoxin (Sigma); “E” represents treatment with 0.1 μM Estradiol; and “E+I” represents treatment with both 0.05 μM Iberiotoxin and 0.1 μM Estradiol. Cells were grown in OPTI-MEM (Invitrogen) +0.4% Albu-max (Invitrogen) for two days.
(§2) Cell culture: As standard, the cells were grown in OPTIMEM (Invitrogen) containing 10% FCS (Amimed) and 1% Pen/Strep (Amimed). For iberiotoxin/17β-estradiol treatment 25000 cells were seeded in OPTIMEM, 10% FCS into 6 well plates (Falcon). After one day incubation, the medium was changed to OPTIMEM 1%FCS, 1% Pen/Strep. After another day of incubation the experiment was started by changing the Medium to OPTIMEM 0.4% Albumax (Invitrogen), 1% Pen/Strep containing either only solvents, 50 nM iberiotoxin (Sigma), 100 nM 17β-estradiol (Sigma), or a combination of both. After two days of incubation, the cells were collected and counted.

LNCaP = experiment: Growth (cell count) of LNCaP under iberiotoxin/17β-estradiol treatment; format: cell-based, human; conditions: two days; for effect on estradiol-stimulated growth of LNCaP: 0.05 μM Iberiotoxin + 0.1 μM Estradiol
Method: as §1, §2

BPH-1 = experiment: Growth (cell count) of BPH-1 under iberiotoxin/17β-estradiol treatment; format: cell-based, human; conditions: two days; for effect on estradiol-stimulated growth of BPH-1: 0.05 μM Iberiotoxin + 0.1 μM Estradiol
Method: as §1, §2

[1] = test system: whole cell conductances of PC-3 cells; experiment: Whole cell patch clamp, PC-3 cells; format: cell-based, human; conditions: iberiotoxin 30 nM, preliminary
[2] = test system: whole cell conductances of BPH-1 cells; experiment: Whole cell patch clamp, BPH-1 cells; format: cell-based, human; conditions: iberiotoxin 30 nM, preliminary
[3] = target: T1, potassium channels in membrane patches of PC-3 cells (Homo sapiens, UniProt Q12791); experiment: Patch clamp, cell excised inside/out membrane patches of PC-3 cells; format: cell-based; conditions: preliminary
T1 construct: endogenous in cells; host or cells: PC-3 prostate cancer cells (excised inside/out membrane patches)
T1 sequence (Q12791 whole entry): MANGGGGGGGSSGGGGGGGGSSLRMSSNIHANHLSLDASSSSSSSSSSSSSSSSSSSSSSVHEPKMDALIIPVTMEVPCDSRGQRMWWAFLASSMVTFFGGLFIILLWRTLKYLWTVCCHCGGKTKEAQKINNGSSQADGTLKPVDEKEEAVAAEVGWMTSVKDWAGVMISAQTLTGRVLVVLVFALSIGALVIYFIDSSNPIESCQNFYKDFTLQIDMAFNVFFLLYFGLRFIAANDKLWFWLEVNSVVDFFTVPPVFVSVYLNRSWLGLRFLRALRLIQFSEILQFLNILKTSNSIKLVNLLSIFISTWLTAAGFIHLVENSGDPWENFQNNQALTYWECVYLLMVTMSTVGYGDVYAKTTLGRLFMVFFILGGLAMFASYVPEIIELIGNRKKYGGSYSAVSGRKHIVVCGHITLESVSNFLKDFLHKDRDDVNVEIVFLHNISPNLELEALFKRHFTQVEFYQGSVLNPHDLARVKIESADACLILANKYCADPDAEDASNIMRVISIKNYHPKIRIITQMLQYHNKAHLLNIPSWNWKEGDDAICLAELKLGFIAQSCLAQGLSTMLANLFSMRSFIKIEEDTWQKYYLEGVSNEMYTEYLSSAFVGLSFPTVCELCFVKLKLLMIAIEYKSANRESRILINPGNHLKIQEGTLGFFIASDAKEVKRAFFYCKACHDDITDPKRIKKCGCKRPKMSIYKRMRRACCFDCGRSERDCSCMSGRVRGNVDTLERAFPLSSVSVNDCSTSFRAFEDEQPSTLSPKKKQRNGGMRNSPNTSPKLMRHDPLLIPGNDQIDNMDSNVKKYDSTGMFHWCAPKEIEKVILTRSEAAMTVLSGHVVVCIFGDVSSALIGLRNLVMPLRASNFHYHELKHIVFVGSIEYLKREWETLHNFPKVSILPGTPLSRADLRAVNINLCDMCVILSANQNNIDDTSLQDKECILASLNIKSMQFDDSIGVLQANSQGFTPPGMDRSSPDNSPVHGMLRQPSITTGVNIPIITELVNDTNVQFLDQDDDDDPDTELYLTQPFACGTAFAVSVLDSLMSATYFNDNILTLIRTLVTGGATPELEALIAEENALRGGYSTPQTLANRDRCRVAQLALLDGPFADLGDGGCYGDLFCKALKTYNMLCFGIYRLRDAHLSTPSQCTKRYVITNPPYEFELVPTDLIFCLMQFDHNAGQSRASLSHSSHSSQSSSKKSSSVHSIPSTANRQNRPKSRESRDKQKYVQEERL
Description: (§3) Numerous channels are active under high (1 mmol/l) intracellular Ca^2+ concentration in the membrane patch from PC-3 cells (A), thus single channel currents cannot be resolved. In contrast, little channel activity is present in the BPH-1 membrane patch (B).
(§4) Patch clamp recording was used to further assess the role of KCNMA1.
(§5) The membrane voltage of PC-3 cells is hyperpolarized when compared with that of BPH-1 cells. Moreover, paxillin inhibited potassium channels in cell excised inside/out membrane patches of PC-3 cells, but not in membrane patches of BPH-1 cells. In cell excised inside/out membrane patches of PC-3 cells we found pronounced activity of Ca^2+ activated K^+ channels, while little channel activity was found in excised membrane patches of BPH-1 cells (FIG. 10). Removal of Ca^2+ from the cytosolic side (0 mmol/l) abolished channel activity in both membrane patches of PC-3 and BPH-1 cells. Channel activity was recovered at cytosolic Ca^2+ concentrations of 1 μmol/l (0.001). These preliminary results fit very well to the expression data of KCNMA1 obtained so far.

[4] = test system: potassium channels in membrane patches of BPH-1 cells; experiment: Patch clamp, cell excised inside/out membrane patches of BPH-1 cells; format: cell-based, human; conditions: preliminary
Description: as §3, §4, §5

[5] = 50 nM iberiotoxin, listed as Iberiotoxin
[6] = 100 nM 17β-estradiol, listed as 17β-estradiol

iberiotoxin (QFTDVDCSVSKECWSVCKDLFGVDRGKCMGKKCRCYQ; Iberiotoxin; UniProt P24663 1-37, looked up)
reduction of the growth rate of PC-3 (PC-3; 0.05 μM Iberiotoxin, OPTI-MEM + 0.4% Albu-max): 10-15%
effect on growth of PC-3 (words) (PC-3; 50 nM iberiotoxin): significantly decreased growth rate; also recorded: significant reduction of the growth rate; also recorded: significant growth inhibition; also recorded: could be reduced
effect on estradiol-stimulated growth of LNCaP (LNCaP): completely reversed; also recorded: could be blocked
effect on estradiol-stimulated growth of LNCaP (LNCaP; listed as Iberiotoxin): blocked the growth stimulus
effect on growth of LNCaP (words) (LNCaP; 50 nM iberiotoxin): not and no significant effect and did not react
effect on growth of LNCaP (words) (LNCaP; [5]): no effect
effect on estradiol-stimulated growth of BPH-1 (BPH-1): completely reversed
effect on estradiol-stimulated growth of BPH-1 (BPH-1; listed as Iberiotoxin): blocked the growth stimulus
effect on growth of BPH-1 (words) (BPH-1; 50 nM iberiotoxin): not and no significant effect
effect on growth of BPH-1 (words) (BPH-1; [5]): no effect
effect on whole cell conductances of PC-3 cells [1]: clear inhibitory effect
effect on whole cell conductances of BPH-1 cells [2]: no significant effects

CC(C)(O)[C@H]1O[C@H]2CC[C@@]3(C)[C@@](O)(CC[C@H]4Cc5c([nH]c6ccccc56)[C@@]43C)C2=CC1=O [paxillin]
inhibition of potassium channels in excised inside/out membrane patches of PC-3 cells [3]: inhibited
inhibition of potassium channels in excised inside/out membrane patches of BPH-1 cells [4]: not

C[C@]12CC[C@@H]3c4ccc(O)cc4CC[C@H]3[C@@H]1CC[C@@H]2O [estradiol, 17β-estradiol]
effect on growth of PC-3 (words) (PC-3; 100 nM 17β-estradiol): not
effect on growth of PC-3 (words) (PC-3; [6]): no effect
effect on growth of LNCaP (words) (LNCaP; 100 nM 17β-estradiol): growth promoting effect
effect on growth of LNCaP (words) (LNCaP; [6]): increased proliferation; also recorded: increased its growth rate
effect on growth of BPH-1 (words) (BPH-1; 100 nM 17β-estradiol): growth promoting effect
effect on growth of BPH-1 (words) (BPH-1; [6]): increased proliferation
